# According to patent US12539273B2, “External nano liniment for gout and preparation method thereof” (priority 2021, dated 2026):
# Like-named read-outs stand apart in the source and are kept apart here.
# Tests used:
# patients with gout = experiment: Preliminary human trial of preparation: crystal dissolution of gout crystals; type: in vivo
# Description: The prepared nano liniment was applied to some patients with gout on trial. The gout treatment effect was obvious. The local application dosage was far below the dosage of the same oral medicine. The total dosage was safe.
# Method of application: the nano liniment was applied to the gout parts (most foot joints, some hand joints or other parts) twice a day (every morning and evening), 1 ml of the corresponding nano liniment was applied every time, the gout (crystal) parts were photographed at different points in time before and after the nano liniment was applied, and the blood uric acid concentration (i.e. the uric acid value under fasting) of some patients with obvious crystal dissolution and lump elimination was also determined as a reference.
# [1] = cited from earlier work; for cardiovascular and cerebrovascular and all-cause mortality: oral administration, statistic average period of 1 year
smiles,measurement,setting,value
OCc1ccc(O[C@@H]2O[C@H](CO)[C@@H](O)[C@H](O)[C@H]2O)cc1 [4-hydroxymethyl phenyl-beta-D-glucopyranoside],analgesic effect,"patients with gout; finding of the study, gout",good analgesic effect
same,gout treatment effect,patients with gout; patients with gout on trial,good treatment effect on gout
Oc1ncnc2[nH]ncc12 [Allopurinol],cardiovascular and cerebrovascular and all-cause mortality,[1],mortality reaches up to 3.3%).
same,cardiovascular and cerebrovascular and all-cause mortality,[1]; listed as allopurinol,3.3%
Cc1nc(-c2ccc(OCC(C)C)c(C#N)c2)sc1C(=O)O [Febuxostat],cardiovascular and cerebrovascular and all-cause mortality,[1],reaches up to 4.1%).
same,cardiovascular and cerebrovascular and all-cause mortality,[1]; listed as febuxostat,4.1%
N#Cc1cc(-c2n[nH]c(-c3ccncc3)n2)ccn1 [Topiroxostat],Side effects,"[1]; oral tablet, marketed gout medicine",effect on the liver and bile.
